Here are results for 21 compounds from US12065429B2, “Small molecule modulators of IL-17” (LEO Pharma A/S, priority 2022, dated 2024).

≈ marks a conversion by molar mass, not a printed value. Some results are limits rather than exact numbers.

Data set [1] can be described thus: Human liver microsome (HLM) clearance assay. The settings on record: human liver microsomes 0.5 mg/mL, NADPH 1 mM, 0.5 μM compound, 40 min. Type of data set: in vitro ADME. The method, then:
Example 63: Human Liver Microsome (HLM) Clearance Assay
Samples were taken out before addition of NADPH, and at 5, 10, 20 and 40 minutes thereafter and protein precipitation using cold acetonitrile with added internal standard was performed prior to centrifugation and sample analysis using compound specific LCMS/MS methods. Control incubations in buffer and without NADPH were performed in the same manner. Compound depletion was determined and apparent clearance (CLapp) was calculated.
In general terms: Microsomes from liver hold many membrane-bound enzymes, among them those of drug oxidation.

Data set [2] in a line: Solubility assay. Type of data set: physicochemical. As to conditions: aqueous buffer, kinetic from dmso stock; 0.067 M phosphate buffer pH 6.5, 24 hours shaking, from 10 mM DMSO stock. The method, then: After centrifugation, the supernatant was analyzed by HPLC-UV. The solubility was defined as the concentration of the test substance in the selected solvent. It was determined by correlation with an external standard calibration curve.

What is called solubility is how much of the substance goes into solution per volume. Read a high solubility as much dissolved substance. Regarding `Cc1c(-c2ccc(NC(=O)[C@@H](NC(=O)c3ccnn3C(C)C)C(C3CC3)C3CC3)nc2Cl)cc(F)c[n+]1[O-]` [Example 19, N-[(1S)-1-[[6-chloro-5-(5-fluoro-2-methyl-1-oxido-pyridin-1-ium-3-yl)-2-pyridyl]carbamoyl]-2,2-dicyclopropyl-ethyl]-2-isopropyl-pyrazole-3-carboxamide], the “HLM Clapp” value in data set [1] is reported as less than 8 mL/min/kg. Besides, in data set [2], the solubility at 24 h was 18 µg/mL (≈ 33.3 µM).

Regarding `Cc1cc(-c2ccc(NC(=O)[C@@H](NC(=O)c3ccnn3C3CCC3)C(C3CC3)C3CC3)nc2F)c(C)[n+]([O-])c1` [Example 25, 2-cyclobutyl-N-[(1S)-1-(dicyclopropylmethyl)-2-[[5-(2,5-dimethyl-1-oxido-pyridin-1-ium-3-yl)-6-fluoro-2-pyridyl]amino]-2-oxo-ethyl]pyrazole-3-carboxamide], in data set [1], the “HLM Clapp” value turned out to be 250 mL/min/kg.

Turning to `Cc1c(-c2ccc(NC(=O)[C@@H](NC(=O)c3ccnn3C(C)C)C(C3CC3)C3CC3)nc2F)cc(Cl)c[n+]1[O-]` [Example 11, N-[(1S)-1-[[5-(5-chloro-2-methyl-1-oxido-pyridin-1-ium-3-yl)-6-fluoro-2-pyridyl]carbamoyl]-2,2-dicyclopropyl-ethyl]-2-isopropyl-pyrazole-3-carboxamide], in data set [1], the “HLM Clapp” value is less than 8 mL/min/kg. In data set [2], this compound registered a solubility at 24 h of 6.5 µg/mL (≈ 12 µM).

For the compound `CC(C)n1nccc1C(=O)N[C@H](C(=O)Nc1ccc(-c2ccc[n+]([O-])c2C2CC2)c(F)n1)C(C1CC1)C1CC1` [Example 7, N-[(1S)-2,2-dicyclopropyl-1-[[5-(2-cyclopropyl-1-oxido-pyridin-1-ium-3-yl)-6-fluoro-2-pyridyl]carbamoyl]ethyl]-2-isopropyl-pyrazole-3-carboxamide], the “HLM Clapp” value in data set [1] was less than 8 mL/min/kg. In addition, the solubility at 24 h in data set [2] was 38 µg/mL (≈ 71.3 µM).

In the case of `Cc1c(-c2ccc(NC(=O)[C@@H](NC(=O)c3ccnn3C(C)C)C(C3CC3)C3CC3)nc2F)cc(C(F)(F)F)c[n+]1[O-]` [Example 12, N-[(1S)-1-(dicyclopropylmethyl)-2-[[6-fluoro-5-[2-methyl-1-oxido-5-(trifluoromethyl)pyridin-1-ium-3-yl]-2-pyridyl]amino]-2-oxo-ethyl]-2-isopropyl-pyrazole-3-carboxamide], the “HLM Clapp” value in data set [1] is less than 8 mL/min/kg. In data set [2], the solubility at 24 h was determined as 6 µg/mL (≈ 10.4 µM).

As to `Cc1c(-c2ccc(NC(=O)[C@@H](NC(=O)c3ccnn3C(C)C)C(C3CC3)C3CC3)nc2F)ccc[n+]1[O-]` [Example 16, N-[(1S)-1-(dicyclopropylmethyl)-2-[[6-fluoro-5-(2-methyl-1-oxido-pyridin-1-ium-3-yl)-2-pyridyl]amino]-2-oxo-ethyl]-2-isopropyl-pyrazole-3-carboxamide], in data set [1], the “HLM Clapp” value is less than 8 mL/min/kg. The solubility at 24 h in data set [2] was 60 µg/mL (≈ 118 µM).

Turning to `Cc1cc(-c2ccc(NC(=O)[C@@H](NC(=O)c3ccnn3C(C)C)C(C3CC3)C3CC3)nc2F)c(C2CC2)[n+]([O-])c1` [Example 13, N-[(1S)-2,2-dicyclopropyl-1-[[5-(2-cyclopropyl-5-methyl-1-oxido-pyridin-1-ium-3-yl)-6-fluoro-2-pyridyl]carbamoyl]ethyl]-2-isopropyl-pyrazole-3-carboxamide], in data set [1], the “HLM Clapp” value was 14 mL/min/kg. Moreover, the solubility at 24 h in data set [2] is 26 µg/mL (≈ 47.6 µM).

For `Cc1cc[n+]([O-])cc1-c1ccc(NC(=O)[C@@H](NC(=O)c2ccnn2C(C)C)C(C2CC2)C2CC2)nc1F` [Example 15, N-[(1S)-1-(dicyclopropylmethyl)-2-[[6-fluoro-5-(4-methyl-1-oxido-pyridin-1-ium-3-yl)-2-pyridyl]amino]-2-oxo-ethyl]-2-isopropyl-pyrazole-3-carboxamide], the “HLM Clapp” value in data set [1] is less than 8 mL/min/kg. In addition, the solubility at 24 h in data set [2] is 97 µg/mL (≈ 191 µM).

Turning to `CC(C)n1nccc1C(=O)N[C@H](C(=O)Nc1ccc(-c2c[n+]([O-])ccc2C(F)(F)F)c(F)n1)C(C1CC1)C1CC1` [Example 6, N-[(1S)-1-(dicyclopropylmethyl)-2-[[6-fluoro-5-[1-oxido-4-(trifluoromethyl)pyridin-1-ium-3-yl]-2-pyridyl]amino]-2-oxo-ethyl]-2-isopropyl-pyrazole-3-carboxamide], the “HLM Clapp” value in data set [1] is on record as 14 mL/min/kg. The solubility at 24 h in data set [2] was determined as 5 µg/mL (≈ 8.92 µM).

`CCOc1cc(-c2ccc(NC(=O)[C@@H](NC(=O)c3ccnn3C(C)C)C(C3CC3)C3CC3)nc2F)c(C)[n+]([O-])c1` [Example 10, N-[(1S)-1-(dicyclopropylmethyl)-2-[[5-(5-ethoxy-2-methyl-1-oxido-pyridin-1-ium-3-yl)-6-fluoro-2-pyridyl]amino]-2-oxo-ethyl]-2-isopropyl-pyrazole-3-carboxamide]: the “HLM Clapp” value in data set [1] stood at 22 mL/min/kg. In data set [2], this compound returned a solubility at 24 h of 9 µg/mL (≈ 16.3 µM).

Take `Cc1c(-c2ccc(NC(=O)[C@@H](NC(=O)c3ccnn3C(C)C)C(C3CC3)C3CC3)nc2F)cc(F)c[n+]1[O-]` [Example 2, N-[(1S)-1-(dicyclopropylmethyl)-2-[[6-fluoro-5-(5-fluoro-2-methyl-1-oxido-pyridin-1-ium-3-yl)-2-pyridyl]amino]-2-oxo-ethyl]-2-isopropyl-pyrazole-3-carboxamide]: the “HLM Clapp” value in data set [1] is less than 8 mL/min/kg. The compound further displayed a solubility at 24 h in data set [2] of 26 µg/mL (≈ 49.6 µM).

Consider `CC(C)n1nccc1C(=O)N[C@H](C(=O)Nc1ccc(-c2c[n+]([O-])ccc2C2CC2)c(F)n1)C(C1CC1)C1CC1` [Example 47, N-[(1S)-2,2-dicyclopropyl-1-[[5-(4-cyclopropyl-1-oxido-pyridin-1-ium-3-yl)-6-fluoro-2-pyridyl]carbamoyl]ethyl]-2-isopropyl-pyrazole-3-carboxamide], for which the “HLM Clapp” value in data set [1] is listed as less than 8 mL/min/kg.

On to `Cc1cc(-c2ccc(NC(=O)[C@@H](NC(=O)c3ccnn3CC3CC(F)(F)C3)C(C3CC3)C3CC3)nc2F)c(C)[n+]([O-])c1` [Example 32, N-[(1S)-1-(dicyclopropylmethyl)-2-[[5-(2,5-dimethyl-1-oxido-pyridin-1-ium-3-yl)-6-fluoro-2-pyridyl]amino]-2-oxo-ethyl]-2-[(3,3-difluorocyclobutyl)methyl]pyrazole-3-carboxamide], for which, in data set [1], the “HLM Clapp” value amounted to 23 mL/min/kg.

As to `CCCn1nccc1C(=O)N[C@H](C(=O)Nc1ccc(-c2cc(C)c[n+]([O-])c2C)c(F)n1)C(C1CC1)C1CC1` [Example 20, N-[(1S)-1-(dicyclopropylmethyl)-2-[[5-(2,5-dimethyl-1-oxido-pyridin-1-ium-3-yl)-6-fluoro-2-pyridyl]amino]-2-oxo-ethyl]-2-propyl-pyrazole-3-carboxamide], the “HLM Clapp” value in data set [1] came out at 74 mL/min/kg. This compound also gave a solubility at 24 h in data set [2] of 38 µg/mL (≈ 73 µM).

In the case of `Cc1c[n+]([O-])cc(-c2ccc(NC(=O)[C@@H](NC(=O)c3ccnn3C(C)C)C(C3CC3)C3CC3)nc2F)c1C` [Example 52, N-[(1S)-1-(dicyclopropylmethyl)-2-[[5-(4,5-dimethyl-1-oxido-pyridin-1-ium-3-yl)-6-fluoro-2-pyridyl]amino]-2-oxo-ethyl]-2-isopropyl-pyrazole-3-carboxamide], the “HLM Clapp” value in data set [1] is recorded as less than 8 mL/min/kg. Further, in data set [2], the solubility at 24 h came to 4 µg/mL (≈ 7.68 µM).

`Cc1cc(-c2ccc(NC(=O)[C@@H](NC(=O)c3ccnn3CC3CC3)C(C3CC3)C3CC3)nc2F)c(C)[n+]([O-])c1` [Example 29, 2-(cyclopropylmethyl)-N-[(1S)-1-(dicyclopropylmethyl)-2-[[5-(2,5-dimethyl-1-oxido-pyridin-1-ium-3-yl)-6-fluoro-2-pyridyl]amino]-2-oxo-ethyl]pyrazole-3-carboxamide]: in data set [1], the “HLM Clapp” value is on record as 8 mL/min/kg.

Turning to `Cc1cc(-c2ccc(NC(=O)[C@@H](NC(=O)c3ccnn3CC(C)C)C(C3CC3)C3CC3)nc2F)c(C)[n+]([O-])c1` [Example 28, N-[(1S)-1-(dicyclopropylmethyl)-2-[[5-(2,5-dimethyl-1-oxido-pyridin-1-ium-3-yl)-6-fluoro-2-pyridyl]amino]-2-oxo-ethyl]-2-isobutyl-pyrazole-3-carboxamide], the “HLM Clapp” value in data set [1] is reported as greater than 750 mL/min/kg.

For `Cc1cc(-c2ccc(NC(=O)[C@@H](NC(=O)c3ccnn3C3CC3)C(C3CC3)C3CC3)nc2F)c(C)[n+]([O-])c1` [Example 27, 2-cyclopropyl-N-[(1S)-1-(dicyclopropylmethyl)-2-[[5-(2,5-dimethyl-1-oxido-pyridin-1-ium-3-yl)-6-fluoro-2-pyridyl]amino]-2-oxo-ethyl]pyrazole-3-carboxamide], in data set [1], the “HLM Clapp” value was less than 8 mL/min/kg.

In the case of `Cc1cc(-c2ccc(NC(=O)[C@@H](NC(=O)c3ccnn3CC(F)F)C(C3CC3)C3CC3)nc2F)c(C)[n+]([O-])c1` [Example 24, N-[(1S)-1-(dicyclopropylmethyl)-2-[[5-(2,5-dimethyl-1-oxido-pyridin-1-ium-3-yl)-6-fluoro-2-pyridyl]amino]-2-oxo-ethyl]-2-(2,2-difluoroethyl)pyrazole-3-carboxamide], the “HLM Clapp” value in data set [1] is reported as less than 8 mL/min/kg.

Regarding `Cc1cc(-c2ccc(NC(=O)[C@@H](NC(=O)c3ccnn3C(F)F)C(C3CC3)C3CC3)nc2F)c(C)[n+]([O-])c1` [Example 26, N-[(1S)-1-(dicyclopropylmethyl)-2-[[5-(2,5-dimethyl-1-oxido-pyridin-1-ium-3-yl)-6-fluoro-2-pyridyl]amino]-2-oxo-ethyl]-2-(difluoromethyl)pyrazole-3-carboxamide], the “HLM Clapp” value in data set [1] is on record as less than 8 mL/min/kg.

As to `Cc1cc(-c2ccc(NC(=O)[C@@H](NC(=O)c3cnnn3C(C)C)C(C3CC3)C3CC3)nc2F)c(C)[n+]([O-])c1` [Example 23, N-[(1S)-1-(dicyclopropylmethyl)-2-[[5-(2,5-dimethyl-1-oxido-pyridin-1-ium-3-yl)-6-fluoro-2-pyridyl]amino]-2-oxo-ethyl]-3-isopropyl-triazole-4-carboxamide], in data set [1], the “HLM Clapp” value is recorded as less than 8 mL/min/kg.
